One test has as its target PIK3CA (human) (UniProt P42336). As to the kind of experiment: Cell-Based Assay. The note with it: mda-mb-361.
Chain of PIK3CA (human) (P42336 whole entry, looked up): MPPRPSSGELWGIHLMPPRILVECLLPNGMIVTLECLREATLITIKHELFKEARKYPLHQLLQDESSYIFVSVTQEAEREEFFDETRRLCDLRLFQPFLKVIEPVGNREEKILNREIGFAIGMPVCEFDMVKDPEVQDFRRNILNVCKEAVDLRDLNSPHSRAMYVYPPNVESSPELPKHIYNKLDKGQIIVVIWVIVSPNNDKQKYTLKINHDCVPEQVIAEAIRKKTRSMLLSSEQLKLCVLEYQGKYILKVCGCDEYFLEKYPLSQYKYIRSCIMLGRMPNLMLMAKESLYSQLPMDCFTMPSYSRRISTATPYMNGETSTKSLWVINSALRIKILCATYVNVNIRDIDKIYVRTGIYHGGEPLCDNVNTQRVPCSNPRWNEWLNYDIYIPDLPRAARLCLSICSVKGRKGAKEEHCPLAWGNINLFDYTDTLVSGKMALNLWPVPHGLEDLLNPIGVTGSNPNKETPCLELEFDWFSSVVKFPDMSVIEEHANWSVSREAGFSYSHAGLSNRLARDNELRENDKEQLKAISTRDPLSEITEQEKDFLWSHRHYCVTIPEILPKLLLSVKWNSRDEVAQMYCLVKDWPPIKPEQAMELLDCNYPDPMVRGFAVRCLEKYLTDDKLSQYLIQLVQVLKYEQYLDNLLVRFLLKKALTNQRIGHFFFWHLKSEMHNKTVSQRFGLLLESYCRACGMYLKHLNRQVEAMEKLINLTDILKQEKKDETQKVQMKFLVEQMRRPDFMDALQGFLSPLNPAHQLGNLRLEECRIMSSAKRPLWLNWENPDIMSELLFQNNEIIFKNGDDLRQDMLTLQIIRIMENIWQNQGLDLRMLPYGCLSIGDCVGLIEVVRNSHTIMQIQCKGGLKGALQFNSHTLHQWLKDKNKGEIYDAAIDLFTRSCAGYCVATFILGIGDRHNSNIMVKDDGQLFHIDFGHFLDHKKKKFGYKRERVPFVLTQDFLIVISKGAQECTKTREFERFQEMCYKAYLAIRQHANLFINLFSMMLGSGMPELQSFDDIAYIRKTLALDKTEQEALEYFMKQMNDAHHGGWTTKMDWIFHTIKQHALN
A word on the IC50: it is the concentration that inhibits the measured activity by half. A high value points to lower potency. In turn, `Nc1nc2cc(-c3ccc4ncc(N5CC(N6CCN(CCO)CC6)C5)cc4n3)ccc2o1` had an IC50 of 100 to 1000 nM. The compound `CCOC(=O)N1CC=C(c2cnc3ccc(-c4ccc5oc(N)nc5c4)nc3n2)CC1` came in with an IC50 of 100 to 1000 nM. Still for that read-out and setting: for `CC(C)(N)C(=O)N1CCN(c2cnc3ccc(-c4ccc5oc(N)nc5c4)nc3c2)CC1` the value was 100 to 1000 nM; for `Nc1nc2cc(-c3ccc4ncc(N5C6CCC5COC6)nc4n3)ccc2o1`, 100 to 1000 nM; for `Nc1nc2cc(-c3ccc4ncc(N5CC6CCC(C5)O6)nc4n3)ccc2o1`, 100 to 1000 nM. Same read-out and setting: for `Nc1nc2cc(-c3ccc4ncc(N5CCNC(=O)C5)nc4n3)ccc2o1` the value was 100 to 1000 nM; for `CN1CCN(C2CN(c3cnc4ccc(-c5ccc6oc(N)nc6c5)nc4c3)C2)CC1`, 100 to 1000 nM.

The compound `Nc1nc2cc(-c3ccc4ncc(N5CC(N6CCNCC6)C5)nc4n3)ccc2o1` returned a concentration for half-maximal inhibition (IC50) of over 10000 nM. As for `CC1(C)CN(C2CN(c3cnc4ccc(-c5ccc6oc(N)nc6c5)nc4n3)C2)CCN1`, the IC50 lay in the range of 100 to 1000 nM. Same read-out and setting: then `C[C@H]1CN(C2CN(c3cnc4ccc(-c5ccc6oc(N)nc6c5)nc4c3)C2)CCN1`, with 100 to 1000 nM. With `CCN1CCN(C2CN(c3cnc4ccc(-c5ccc6oc(N)nc6c5)nc4c3)C2)CC1`, the IC50 was in the range of 100 to 1000 nM.

`C[C@H]1CN(C2CN(c3cnc4ccc(-c5ccc6oc(N)nc6c5)nc4c3)C2)CCN1C` had an IC50 of 100 to 1000 nM. On the same count and under the same terms, then `Nc1nc2cc(-c3ccc4ncc(N5CCN(C(=O)C6(N)CC6)CC5)cc4n3)ccc2o1`, with 100 to 1000 nM; and `C[C@@H]1CN(C2CN(c3cnc4ccc(-c5ccc6oc(N)nc6c5)nc4c3)C2)CCN1C`, with 100 to 1000 nM; and `C[C@@H]1COCCN1c1cnc2ccc(-c3ccc4oc(N)nc4c3)nc2n1`, with 100 to 1000 nM. For the compound `Nc1nc2cc(-c3ccc4ncc(N5CC6CCC(C5)O6)cc4n3)ccc2o1`, the IC50 lay in the range of 100 to 1000 nM.

The compound `CN1CCN(C2CN(c3cnc4ccc(-c5ccc6oc(N)nc6c5)nc4c3)C2)CC1=O` gave an IC50 of 100 to 1000 nM. The same measure, in the same setting: then `NCC(=O)N1CCN(c2cnc3ccc(-c4ccc5oc(N)nc5c4)nc3n2)CC1`, with over 10000 nM; and `C[C@H]1COCCN1c1cnc2ccc(-c3ccc4oc(N)nc4c3)nc2n1`, with 100 to 1000 nM; and `CC(C)N1CCN(C2CN(c3cnc4ccc(-c5ccc6oc(N)nc6c5)nc4c3)C2)CC1`, with 100 to 1000 nM.

In turn, `C[C@H]1COCCN1C1CN(c2cnc3ccc(-c4ccc5oc(N)nc5c4)nc3n2)C1` displayed an IC50 of over 10000 nM.

`Nc1nc2cc(-c3ccc4ncc(-c5cccnc5)cc4n3)ccc2o1` came in with an IC50 of over 10000 nM.

In turn, `CC1(C)CN(C2CN(c3cnc4ccc(-c5ccc6oc(N)nc6c5)nc4c3)C2)CCN1` gave an IC50 of 100 to 1000 nM. For the compound `Nc1nc2cc(-c3ccc4ncc(N5CC(N6CCN(CC7CC7)CC6)C5)cc4n3)ccc2o1`, the IC50 is 100 to 1000 nM. Still for that read-out and setting: then `C[C@@H]1CN(C2CN(c3cnc4ccc(-c5ccc6oc(N)nc6c5)nc4c3)C2)CCN1`, with 100 to 1000 nM.

Staying with this test, now noted: pc3.
The compound `O=C(c1cnc2ccc(-c3cnc(Cl)c(NS(=O)(=O)c4cccc(F)c4)c3)cn12)N1CCOCC1` gave an IC50 of 100 to 1000 nM. The same measure, in the same setting: then `Cn1c(=O)n(-c2ccc(C(C)(C)C#N)cc2)c2c3cc(-c4ccc5oc(N)nc5c4)ccc3ncc21`, with under 100 nM. The same measure, in the same setting: for `COc1ncc(-c2ccc3ncn(C4CCN(C(C)C)CC4)c(=O)c3c2)cc1NS(=O)(=O)c1ccccc1` the value was 100 to 1000 nM. `CN1CCC(N(C)C(=O)c2cnc3ccc(-c4ccc5oc(N)nc5c4)cn23)CC1` returned an IC50 of 100 to 1000 nM. Consider `COc1ncc(-c2ccc3ncn(C4CCN(C)CC4)c(=O)c3c2)cc1NS(=O)(=O)c1ccccc1`, for which the IC50 lay in the range of 100 to 1000 nM.

As to `CS(=O)(=O)N1CCN(Cc2cc3nc(-c4ccc5oc(N)nc5c4)nc(N4CCOCC4)c3s2)CC1`, the IC50 was in the range of 100 to 1000 nM.

`O=C(c1cnc2ccc(-c3cnc(Cl)c(NS(=O)(=O)c4ccc(F)cc4)c3)cn12)N1CCOCC1` had an IC50 of 100 to 1000 nM.

In turn, `C[C@H]1CN(C2CN(C(=O)c3cnc4ccc(-c5ccc6oc(N)nc6c5)cn34)C2)CCN1C` showed an IC50 of 100 to 1000 nM.

`Nc1nc2cc(-c3ccc4ncc(C(=O)N5CC[C@H](n6cccn6)C5)n4c3)ccc2o1` showed an IC50 of 100 to 1000 nM. Still for that read-out and setting: then `O=C(c1cnc2ccc(-c3cnc(Cl)c(NS(=O)(=O)c4ccccc4)c3)cn12)N1CCOCC1`, with 100 to 1000 nM; and `Nc1nc2cc(-c3ccc4ncc(C(=O)N5CC(F)(F)C5)n4c3)ccc2o1`, with 100 to 1000 nM.

`C[C@@H]1CN(C2CN(C(=O)c3cnc4ccc(-c5ccc6oc(N)nc6c5)cn34)C2)CCN1C`: the IC50 lay in the range of 100 to 1000 nM.

Staying with this test, now noted: t47d.
The compound `Nc1nc2cc(-c3ccc4ncc(NC5CCOCC5)nc4c3)ccc2o1` returned an IC50 of 100 to 1000 nM. Still for that read-out and setting: for `C[C@@H]1CN(C(=O)C2CN(c3cnc4ccc(-c5ccc6oc(N)nc6c5)cc4n3)C2)CCN1` the value was 100 to 1000 nM; for `CN1CC(C(=O)N2CCN(c3cnc4ccc(-c5ccc6oc(N)nc6c5)cc4n3)CC2)C1`, 100 to 1000 nM; for `Nc1nc2cc(-c3ccc4ncc(N5CC(C(=O)N6CCN(C7CC7)CC6)C5)nc4c3)ccc2o1`, 100 to 1000 nM. Same read-out and setting: then `CN1CC(C(=O)N2CCC(Nc3ncnc4ccc(-c5ccc6oc(N)nc6c5)cc34)CC2)C1`, with over 10000 nM; and `Nc1nc2cc(-c3ccc4ncc(C(=O)N5CC[C@@H](O)C5)n4c3)ccc2o1`, with 100 to 1000 nM; and `Nc1nc2cc(-c3ccc4ncc(N5CCCC5)nc4c3)ccc2o1`, with 100 to 1000 nM. On to `Nc1nc2cc(-c3ccc4ncc(N5CCCCC5)nc4c3)ccc2o1`, for which the IC50 is over 10000 nM. The same measure, in the same setting: for `CNC(=O)N1CCN(c2cnc3ccc(-c4ccc5oc(N)nc5c4)cc3n2)CC1` the value was 100 to 1000 nM. The same measure, in the same setting: for `Nc1nc2cc(-c3ccc4ncc(C(=O)NCCCN5CCCC5)n4c3)ccc2o1` the value was 100 to 1000 nM. For the compound `Nc1nc2cc(-c3ccc4ncc(N5CC(N6CCS(=O)(=O)CC6)C5)nc4c3)ccc2o1`, the IC50 lay in the range of 100 to 1000 nM. Regarding `Nc1nc2cc(-c3ccc4ncc(C(=O)N5CC[C@H](O)C5)n4c3)ccc2o1`, the IC50 is 100 to 1000 nM. Turning to `CN1CCN(c2cnc3ccc(-c4ccc5oc(N)nc5c4)cc3n2)CC1=O`, the IC50 lay in the range of 100 to 1000 nM. Same read-out and setting: then `C[C@H](N)C(=O)N1CCN(c2cnc3ccc(-c4ccc5oc(N)nc5c4)cc3n2)CC1`, with 100 to 1000 nM; and `CC(=O)N1CCC(Nc2ncnc3ccc(-c4ccc5oc(N)nc5c4)nc23)CC1`, with 100 to 1000 nM; and `Nc1nc2cc(-c3ccc4ncc(N5CC(N6CCOCC6)C5)nc4c3)ccc2o1`, with 100 to 1000 nM.

`CCN(CC)CC(=O)N1CCN(c2cnc3ccc(-c4ccc5oc(N)nc5c4)cc3n2)CC1` gave an IC50 of 100 to 1000 nM. In turn, `Nc1nc2cc(-c3ccc4ncc(N5CCN(C(=O)[C@@H]6CCCN6)CC5)nc4c3)ccc2o1` returned an IC50 of 100 to 1000 nM. On the same count and under the same terms, then `Nc1nc2cc(-c3ccc4ncc(N5CCN(CCO)CC5)nc4c3)ccc2o1`, with 100 to 1000 nM; and `Nc1nc2cc(-c3ccc4ncc(N5CCN(C(=O)[C@H](N)CO)CC5)nc4c3)ccc2o1`, with 100 to 1000 nM.

On to `C[C@H]1CN(C(=O)C2CN(c3cnc4ccc(-c5ccc6oc(N)nc6c5)cc4n3)C2)CCN1`, for which the half-inhibitory concentration (IC50) was 100 to 1000 nM. `CN1CCN(C2CN(c3cnc4ccc(-c5ccc6oc(N)nc6c5)cc4n3)C2)CC1` displayed an IC50 of 100 to 1000 nM. The same measure, in the same setting: for `Nc1nc2cc(-c3ccc4ncc(-c5cnn(CCO)c5)nc4c3)ccc2o1` the value was 100 to 1000 nM; for `Nc1nc2cc(-c3ccc4ncc(C(=O)NC5CC5)n4c3)ccc2o1`, 100 to 1000 nM; for `Nc1nc2cc(-c3ccc4ncc(N5CC(N6CCN(CCO)CC6)C5)nc4c3)ccc2o1`, 100 to 1000 nM. With `CCNC(=O)c1cnc2ccc(-c3ccc4oc(N)nc4c3)cn12`, the IC50 was 100 to 1000 nM. On the same count and under the same terms, for `Nc1nc2cc(-c3ccc4ncc(N5CCN(C(=O)C6(N)CCC6)CC5)nc4c3)ccc2o1` the value was 100 to 1000 nM. The compound `CS(=O)(=O)N1CCN(C(=O)c2cnc3ccc(-c4ccc5oc(N)nc5c4)cn23)CC1` came in with an IC50 of 100 to 1000 nM. Regarding `Nc1nc2cc(-c3ccc4ncc(N5CCN(CC6CC6)CC5)nc4c3)ccc2o1`, the IC50 fell in the range of 100 to 1000 nM.

In turn, `Cc1cn(-c2cnc3ccc(-c4ccc5oc(N)nc5c4)cc3n2)cn1` came in with an IC50 of over 10000 nM. `Nc1nc2cc(-c3ccc4ncc(N5CC(C(=O)N6CCOCC6)C5)nc4c3)ccc2o1` registered an IC50 of 100 to 1000 nM. Turning to `Nc1nc2cc(-c3ccc4ncc(N5CCN(C(=O)CN6CCCC6)CC5)nc4c3)ccc2o1`, the IC50 lay in the range of 100 to 1000 nM. Still for that read-out and setting: for `CC(N)C(=O)N1CCN(c2cnc3ccc(-c4ccc5oc(N)nc5c4)cc3n2)CC1` (stereo not drawn) the value was 100 to 1000 nM; for `CN1CCN(CCNc2cnc3ccc(-c4ccc5oc(N)nc5c4)cc3n2)CC1`, 100 to 1000 nM. Turning to `CNC(=O)CN1CCN(c2cnc3ccc(-c4ccc5oc(N)nc5c4)cc3n2)CC1`, the IC50 is 100 to 1000 nM. Still for that read-out and setting: then `CC1CN(c2cnc3ccc(-c4ccc5oc(N)nc5c4)cc3n2)CCN1` (stereo not drawn), with over 10000 nM; and `CN1CCC(Nc2ncnc3ccc(-c4ccc5oc(N)nc5c4)nc23)CC1`, with 100 to 1000 nM. `Nc1nc2cc(-c3ccc4ncc(C(=O)NCCO)n4c3)ccc2o1` had an IC50 of 100 to 1000 nM. `Nc1nc2cc(-c3ccn4ncc(-c5ccncc5)c4c3)ccc2o1` showed an IC50 of 100 to 1000 nM. The compound `Nc1nc2cc(-c3ccc4ncc(N5CCNC(=O)C5)nc4c3)ccc2o1` yielded an IC50 of 100 to 1000 nM. As to `CN1CCN(C2CN(C(=O)c3cnc4ccc(-c5ccc6oc(N)nc6c5)cn34)C2)CC1`, the IC50 fell in the range of 100 to 1000 nM. Same read-out and setting: then `Nc1nc2cc(-c3ccc4ncc(C(=O)Nc5cccnc5)n4c3)ccc2o1`, with over 10000 nM. Consider `CC(C)N1CCN(C(=O)C2CN(c3cnc4ccc(-c5ccc6oc(N)nc6c5)cc4n3)C2)CC1`, for which the IC50 was 100 to 1000 nM. On the same count and under the same terms, for `Nc1nc2cc(-c3ccc4ncc(N5CCC(N6CCOCC6)CC5)nc4c3)ccc2o1` the value was 100 to 1000 nM; for `Nc1nc2cc(-c3ccc4ncnc(OC5CCOCC5)c4c3)ccc2o1`, 100 to 1000 nM; for `Nc1nc2cc(-c3ccc4nnc(C(=O)N5CCOCC5)n4c3)ccc2o1`, over 10000 nM. In turn, `C[C@@H]1CN(C2CN(c3cnc4ccc(-c5ccc6oc(N)nc6c5)cc4n3)C2)CCN1` displayed an IC50 of 100 to 1000 nM. On the same count and under the same terms, for `CC(C)(N)C(=O)N1CCN(c2cnc3ccc(-c4ccc5oc(N)nc5c4)cc3n2)CC1` the value was 100 to 1000 nM; for `CS(=O)(=O)CCN1CCN(c2cnc3ccc(-c4ccc5oc(N)nc5c4)cc3n2)CC1`, 100 to 1000 nM. Still for that read-out and setting: for `Nc1nc2cc(-c3ccc4ncc(N5CC(N6CCN(CC7CC7)CC6)C5)nc4c3)ccc2o1` the value was 100 to 1000 nM.

As to `CN1CCN(C(=O)C2CN(c3cnc4ccc(-c5ccc6oc(N)nc6c5)cc4n3)C2)CC1`, the IC50 lay within 100 to 1000 nM.
